Tested on: GSK3, total β-catenin, phospho-CRMP2
Test: GSK3 and GSK3 substrates immunoblot in differentiated SH-SY5Y cells, 24 h
Format: cell-based, human
Description: HEK293 cells purchased from ATCC and MEF cells were kindly gifted by MRC PPU reagents and services at the University of Dundee. HEK293 and MEF cells were maintained in DMEM (high glucose, GlutaMAX; Gibco) containing 10% foetal bovine serum (FBS; Thermo Fisher), 100U ML-1 penicillin-streptomycin (Thermo Fisher). HAP1 wild type and HAP1 Cereblon Knock-out cell line (CRBN-KO, HZGHC003752c001, Horizon) was a gift from the Ciulli Lab. HAP1 cells were cultured in IMDM (Gibco) with the same additives described as above. SH-SY5Y human neuroblastoma cells (ATCC, CRL-2266) maintained in DMEM (high glucose, Gibco) supplemented with same additives as above. For differentiation, 5 × 10^5 cells were seeded into each well of 6 well plates and differentiated into a more neuronal-like phenotype by treating for 5 days with 10 µM retinoic acid (F9665, Sigma), changing the media every day for the first 3 days[39],[40]. […]
HEK293, HAP1, HAP1 CRBN KO and SH-SY5Y cells were plated in either 6 cm plates or 6-well plates at varying densities (0.5–0.7 × 10^6 cells per plate or wells), and MEF cells were plated in 10 cm plates (1–1.2 × 10^6 cells per plate) depending on experimental set up in respective culturing condition as described above. […] Following clearance of lysates, protein concentrations were determined by the BCA assay (Fisher Scientific, 23225) or Bradford assay (Bio-rad). […]

SMILES: Cn1nc(N2CCC(=O)NC2=O)c2ccc(CN3CCN(Cc4ccc(-c5cn(-c6ccc(-c7cn8nccc(C(=O)Nc9cnccc9N9CCOCC9)c8n7)cc6)nn5)nc4)CC3)cc21 [compound 24]
- phospho-CRMP2 level (concurrent with GSK3 degradation): concurrent reduction in phospho-CRMP2
- dose at which β-catenin stabilisation most clear (highest tested dose): 100 nM

— article PMC12501029, “Discovery of a CNS active GSK3 degrader using orthogonally reactive linker screening” (Nature Communications, 2025)
